Assay results: patent US11597703B2, “Caspase inhibitors and methods of use thereof” (Histogen Inc., priority 2019, dated 2023)
pIC50: −log10 of the molar value.

What was measured:
Caspase-1 = target: T1, Caspase-1 (Homo sapiens, UniProt P29466); test: Caspase-1 enzyme inhibition assay (Ac-YVAD-pNA substrate), IC50; format: biochemical
T1 construct: purchased Enzo Biosciences
T1 sequence (P29466 120-297 limits assumed): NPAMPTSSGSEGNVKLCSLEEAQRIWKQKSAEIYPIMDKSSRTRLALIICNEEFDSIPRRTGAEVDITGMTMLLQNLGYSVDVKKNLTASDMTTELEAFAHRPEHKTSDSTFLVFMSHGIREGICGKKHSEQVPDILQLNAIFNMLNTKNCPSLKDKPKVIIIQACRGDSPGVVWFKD
T1 sequence (P29466 317-404 limits assumed): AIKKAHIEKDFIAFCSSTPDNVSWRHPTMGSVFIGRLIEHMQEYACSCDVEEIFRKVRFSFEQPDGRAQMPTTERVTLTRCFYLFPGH
Experimental: (§1) Human caspases were purchased from Enzo Biosciences and used according to the manufacturer's instructions. An exemplary caspase assay, for Caspase-1, is provided below:
Caspase-1 was diluted to 10 U/μl in assay buffer consisting of 50 mM HEPES, pH 7.4, 100 mM NaCl, 0.1% CHAPS, 1 mM EDTA, 10% glycerol and 10 mM DTT.
45 μl of assay buffer was added into ½ volume microtiter plate. The plate was allowed to equilibrate to assay temperature. 5 μl of Caspase-1 (10 U/μl) was added to each appropriate well. Two 2 blank wells containing assay buffer alone without Caspase-1 were included on the plate.
The reaction was started by the addition of 50 μl Ac-YVAD-pNA substrate, for a final substrate concentration of 200 μM. The reaction was continuously monitored at 405 nm. The data was graphed as OD405 nm vs time, and the slope was determined over the linear portion of the curve. The rates in OD/min were converted to substrate/min using an extinction coefficient for p-nitroaniline of 10,500M-1 cm-1, and were adjusted for pathlength of sample. […]

Caspase-3 = target: T2, Caspase-3 (Homo sapiens, UniProt P42574); test: Caspase-3 enzymatic inhibition assay, IC50; format: biochemical; conditions: read-out: Caspase 3 enzyme inhibition IC50
T2 construct: purchased Enzo Biosciences
T2 sequence (P42574 29-175 limits assumed): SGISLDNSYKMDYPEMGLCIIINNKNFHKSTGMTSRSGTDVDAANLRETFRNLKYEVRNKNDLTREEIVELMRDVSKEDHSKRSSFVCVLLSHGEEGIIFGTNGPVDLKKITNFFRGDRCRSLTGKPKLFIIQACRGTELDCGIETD
T2 sequence (P42574 176-277 limits assumed): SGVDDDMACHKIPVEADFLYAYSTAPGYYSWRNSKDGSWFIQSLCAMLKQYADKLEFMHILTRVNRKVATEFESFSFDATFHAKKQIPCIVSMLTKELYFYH
Experimental: as §1
(§2) Enzymatic assays were conducted for Caspase-3, 6 and 7 activity according to the manufacture's instructions.

Caspase 6 = target: T3, Caspase 6 (Homo sapiens, UniProt P55212); test: Caspase 6 enzymatic inhibition assay, IC50; format: biochemical; conditions: read-out: Caspase 6 enzyme inhibition IC50
T3 construct: purchased Enzo Biosciences
T3 sequence (P55212 24-179 limits assumed): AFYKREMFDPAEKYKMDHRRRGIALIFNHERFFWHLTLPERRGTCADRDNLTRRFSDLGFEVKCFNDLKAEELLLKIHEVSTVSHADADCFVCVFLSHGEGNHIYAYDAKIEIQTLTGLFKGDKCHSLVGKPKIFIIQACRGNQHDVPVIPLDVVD
T3 sequence (P55212 194-293 limits assumed): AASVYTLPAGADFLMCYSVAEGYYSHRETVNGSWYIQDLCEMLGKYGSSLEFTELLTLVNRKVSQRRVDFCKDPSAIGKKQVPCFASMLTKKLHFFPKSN
Experimental: as §1, §2

Caspase 7 = target: T4, Caspase 7 (Homo sapiens, UniProt P55210); test: Caspase 7 enzymatic inhibition assay, IC50; format: biochemical; conditions: read-out: Caspase 7 enzyme inhibition IC50
T4 construct: purchased Enzo Biosciences
T4 sequence (P55210 24-198 limits assumed): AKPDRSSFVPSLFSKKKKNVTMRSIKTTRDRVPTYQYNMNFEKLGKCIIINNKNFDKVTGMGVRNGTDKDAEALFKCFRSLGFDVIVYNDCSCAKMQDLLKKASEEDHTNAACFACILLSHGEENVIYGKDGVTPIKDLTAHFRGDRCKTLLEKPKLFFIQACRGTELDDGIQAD
T4 sequence (P55210 207-303 limits assumed): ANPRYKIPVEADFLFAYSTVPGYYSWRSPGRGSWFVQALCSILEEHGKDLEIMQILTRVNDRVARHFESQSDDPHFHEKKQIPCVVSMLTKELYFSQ
Experimental: as §1, §2

IL-1β = test: Inhibition of LPS-stimulated IL-1β in THP-1 cells (ELISA); format: cell-based, human; conditions: Homo sapiens, 10 micromolar, read-out: Percent Inhibition of IL1-β
Experimental: Compounds in the present invention were tested in THP-1 cells, a human monocyte cell line, to assess the inhibition of the inflammatory cytokine IL-1β. THP-1 cells (ATCC TIB-202) were grown in culture and seeded in 96 well plates at a concentration of 200,000 cells per well with a total volume of 150 μL. Plated cells were incubated overnight at 37 degrees C. under an atmosphere of 5% CO2. Media was removed from cells which were washed with PBS. Test compounds were diluted in DMSO stock solution and serially diluted appropriately for initial screening and IC50 determinations. LPS in serum free media (140 μL of […]) was added to each well to stimulate IL-1β production. IL-1β was measured by ELISA assay kit (R&D Systems) per the manufacturers instructions.
IC50 values for the inhibition of IL-1 in THP 1 cells were determined from dose response studies.

Jurkat cells = test: Prevention of Fas-induced apoptosis in Jurkat cells (WST-8); format: cell-based; conditions: Homo sapiens, 10 micromolar, read-out: % Prevention of Fas - induced Jurkat cell apoptosis at 10 micromolar
Experimental: Compounds of the present invention were evaluated in Jurkat cells, a human T-lymphocyte cell line, to evaluate compounds ability to inhibit apoptotic cell death. Jurkat cells, Clone E6-1 (ATCC TIB-152) were grown in culture maintain a cell density between 0.5-2 million cells/mL. Cells were tested for viability and countion with typan blue stain before use. Test compounds were addedd to 96 well plates and Jurkat cells were added at a concentration of approximately 100,000 cells per well and mixed thoroughly by action of pipetting. Plated cells were incubated for 1 hour at 37 degrees C. under an atmosphere of 5% CO2. Anti-Fas antibody was added and mixed by pipet action. Plates were incubated for 20 hours at 37 degrees C. under an atmosphere of 5% CO2. 10 microliters of thawed WST-8 solution was added to each well and incubated for 4 hours. Absorbance was measured at 450 nm and control reading at […] using a SpectraMax ID5 plate reader. Apoptotic cell death is executed by caspases 3, 7 and 6. Compounds that lack activity against these caspases will not prevent the death of Jurkat cells and is a functional test of selectivity for inflammatory over apoptotic caspases.
IC50 values to protect against Fas induced apoptosis and improve survival of Jurkat cells were determined from dose response studies.

| pIC50 (Caspase-1) | pIC50 (Caspase-3) | pIC50 (Caspase 6) | pIC50 (Caspase 7) | SMILES | inhibition at 10 µM (IL-1β) | inhibition at 10 µM (Jurkat cells) |
| --- | --- | --- | --- | --- | --- | --- |
| ≥ 8.00 | ≤ 6.00 | ≤ 6.00 | ≤ 6.00 | Cc1ccc(NC(=O)C(=O)N[C@@H](C)C(=O)N[C@@H](CCC(=O)O)C(=O)COc2c(F)c(F)cc(F)c2F)cc1 [Example 19, (S)-4-((S)-2-(2-((4-methylphenyl)amino)-2-oxoacetamido)propanamido)-5-oxo-6-(2,3,5,6-tetrafluorophenoxy)hexanoic acid] | > 90% | ≤ 10% |
| ≥ 8.00 | ≤ 6.00 | ≤ 6.00 | ≤ 6.00 | O=C(O)CC[C@H](NC(=O)CNC(=O)C(=O)Nc1c(F)cccc1F)C(=O)COc1c(F)c(F)cc(F)c1F [Example 9, (S)-4-(2-(2-((2,6-difluorophenyl)amino)-2-oxoacetamido)acetamido)-5-oxo-6-(2,3,5,6-tetrafluorophenoxy)hexanoic acid] | > 90% | ≤ 10% |
| 7.00 to 8.00 | ≤ 6.00 | ≤ 6.00 | ≤ 6.00 | C[C@H](NC(=O)C(=O)Nc1c(F)cccc1F)C(=O)N[C@@H](CCCC(=O)O)C(=O)COc1c(F)c(F)cc(F)c1F [Example 13, (S)-5-((S)-2-(2-((2,6-Difluorophenyl)amino)-2-oxoacetamido)propanamido)-6-oxo-7-(2,3,5,6-tetrafluorophenoxy)heptanoic acid] | 50 to 90% | ≤ 10% |
| 6.00 to 7.00 | ≤ 6.00 | ≤ 6.00 | ≤ 6.00 | C[C@H](NC(=O)C(=O)Nc1c(F)cccc1F)C(=O)N[C@@H](CCOC(=O)c1ccccc1)C(=O)COc1c(F)c(F)cc(F)c1F [Example 8, (S)-3-((S)-2-(2-((2,6-Difluorophenyl)amino)-2-oxoacetamido)propanamido)-4-oxo-5-(2,3,5,6-tetrafluorophenoxy)pentyl benzoate] | 25 to 50% | ≤ 10% |
| 7.00 to 8.00 | ≤ 6.00 | ≤ 6.00 | ≤ 6.00 | C[C@H](NC(=O)C(=O)Nc1c(F)cccc1F)C(=O)N[C@@H](CCOCc1ccsc1)C(=O)COc1c(F)c(F)cc(F)c1F [Example 4, N^1-(2,6-difluorophenyl)-N^2—((S)-1-oxo-1-(((S)-2-oxo-1-(2,3,5,6-tetrafluorophenoxy)-5-(thiophen-3-ylmethoxy)pentan-3-yl)amino)propan-2-yl)oxalamide] | 50 to 90% | ≤ 10% |
| ≥ 8.00 | ≤ 6.00 | ≤ 6.00 | ≤ 6.00 | C[C@H](NC(=O)C(=O)Nc1c(F)cccc1F)C(=O)N[C@@H](CCC(=O)O)C(=O)COc1ccnc(C(F)(F)F)n1 [Example 15, (S)-4-((S)-2-(2-((2,6-Difluorophenyl)amino)-2-oxoacetamido)propanamido)-5-oxo-6-((2-(trifluoromethyl)pyrimidin-4-yl)oxy)hexanoic acid] | > 90% | ≤ 10% |
| 7.00 to 8.00 | ≤ 6.00 | ≤ 6.00 | ≤ 6.00 | C[C@H](NC(=O)C(=O)Nc1c(F)cccc1F)C(=O)N[C@@H](CCOCc1ccccc1)C(=O)COc1c(F)c(F)cc(F)c1F [Example 1, N^1-((S)-1-(((S)-5-(Benzyloxy)-2-oxo-1-(2,3,5,6-tetrafluorophenoxy)pentan-3-yl)amino)-1-oxopropan-2-yl)-N^2-(2,6-difluorophenyl)oxalamide] | 50 to 90% | ≤ 10% |
| 6.00 to 7.00 | ≤ 6.00 | ≤ 6.00 | ≤ 6.00 | COCC[C@H](NC(=O)[C@H](C)NC(=O)C(=O)Nc1c(F)cccc1F)C(=O)COc1c(F)c(F)cc(F)c1F [Example 5, N^1-(2,6-Difluorophenyl)-N^2—((S)-1-(((S)-5-methoxy-2-oxo-1-(2,3,5,6-tetrafluorophenoxy)pentan-3-yl)amino)-1-oxopropan-2-yl)oxalamide] | 25 to 50% | ≤ 10% |
| ≥ 8.00 | ≤ 6.00 | ≤ 6.00 | ≤ 6.00 | CC(C)(NC(=O)C(=O)Nc1c(F)cccc1F)C(=O)N[C@@H](CCC(=O)O)C(=O)COc1c(F)c(F)cc(F)c1F [Example 12, (S)-4-(2-(2-((2,6-Difluorophenyl)amino)-2-oxoacetamido)-2-methylpropanamido)-5-oxo-6-(2,3,5,6-tetrafluorophenoxy)hexanoic acid] | > 90% | ≤ 10% |
| ≥ 8.00 | ≤ 6.00 | ≤ 6.00 | ≤ 6.00 | C[C@H](NC(=O)C(=O)Nc1ccc(F)cc1)C(=O)N[C@@H](CCC(=O)O)C(=O)COc1c(F)c(F)cc(F)c1F [Example 17, (S)-4-((S)-2-(2-((4-fluorophenyl)amino)-2-oxoacetamido)propanamido)-5-oxo-6-(2,3,5,6-tetrafluorophenoxy)hexanoic acid] | > 90% | ≤ 10% |
| 7.00 to 8.00 | ≤ 6.00 | ≤ 6.00 | ≤ 6.00 | C[C@H](NC(=O)C(=O)Nc1c(F)cccc1F)C(=O)N[C@@H](CCO)C(=O)COc1c(F)c(F)cc(F)c1F [Example 2, N^1-(2,6-Difluorophenyl)-N^2—((S)-1-(((S)-5-hydroxy-2-oxo-1-(2,3,5,6-tetrafluorophenoxy)pentan-3-yl)amino)-1-oxopropan-2-yl)oxalamide] | 50 to 90% | ≤ 10% |
| 6.00 to 7.00 | ≤ 6.00 | ≤ 6.00 | ≤ 6.00 | C[C@H](NC(=O)C(=O)Nc1c(F)cccc1F)C(=O)N[C@@H](CCOCc1ccc(Cl)cc1)C(=O)COc1c(F)c(F)cc(F)c1F [Example 3, N^1—((S)-1-(((S)-5-((4-Chlorobenzyl)oxy)-2-oxo-1-(2,3,5,6-tetrafluorophenoxy)pentan-3-yl)amino)-1-oxopropan-2-yl)-N^2-(2,6-difluorophenyl)oxalamide] | 25 to 50% | ≤ 10% |
